Assay results from PMC5216877, “Exploring conformational equilibria of a heterodimeric ABC transporter” (eLife, 2017).
Like-named read-outs stand apart in the source and are kept apart here. Marks after values point to notes of the source that are not given here.

How the values were obtained:
BmrCD [1] = biological target: T1, BmrCD (Bacillus subtilis, UniProt O07549+O07550, C154A/C256A/C351A); experiment: Inhibition of ATPase activity of BmrCD by nucleotide analogs; assay type: biochemical; details: BmrCD, 25°C
T1 construct: made in house; host or cells: E. coli MC1061
Procedure: (§1) in which f corresponds to the ATPase activity at the respective inhibitor concentration divided by the ATPase activity in the absence of inhibitor normalized to 100%, y0 corresponds to the residual activity at infinite inhibitor concentration, a corresponds to the maximal degree of inhibition (a+y0=100%) and x corresponds to the inhibitor concentration.
(§2) Ki values were calculated according to the formula Ki=IC50/(1+[S]/Km)
(§3) IC50 and Km values were obtained from data fitting as outlined above.
(§4) Standard errors for the Ki values were calculated by error propagation: σKi = (Km/Km+[S])^2 σIC502+ ([S]IC50/(Km+[S])^2)^2 σKm2
(§5) in which the σIC50 and σKm are standard errors obtained from data fitting in SigmaPlot and σKi is the standard error for Ki .

TM287/288 E517Q = experiment: DEER two-Gaussian fit of IF/OF populations, E-to-Q mutant of TM287/288; parameters: species or system Thermotoga maritima; details: estimated errors 10%
Procedure: (§6) All nucleotides and nucleotide analogs used in this study were added at saturating conditions well above their Ki values (Table 2). […] Therefore, the IF/OF fractions detected in the sample reflect the average life time that the nucleotide-bound transporter spends in either conformation. To rank the nucleotides in terms of their ability to support the transition to the OF conformation, we used three representative pairs in the wildtype transporter and the E-to-Q mutant: one in the extracellular region (50^TM287/271^TM287), one in the intracellular region (131^TM288/248^TM288) of the TMDs, and one in the NBDs (460^TM287/363^TM288) for which the distance peaks corresponding to the two states were distinguishable. A two-Gaussian fit of the DEER traces was performed to obtain the area of the corresponding IF and OF distance peaks (Figure 5—source data 1). The rank of nucleotides with respect to increasing fractions of the OF populations (Figure 5A) was: ADP-Mg ≈ AMP-PNP-Mg < ATP-EDTA < ATPγS-Mg < ATP-Mg < ATP-Vi-Mg. The order is similar for the wildtype and E-to-Q mutant transporter. However, the OF state is in general more populated in the E-to-Q mutant, which is best explained by an alteration of the energy profile caused by the mutation. This notion is best appreciated for ATP-EDTA and ATP-Mg, which could trigger an almost complete switch in the molecular ensemble of the E-to-Q mutant (Figure 5B).
(§7) The labeling efficiency of the double cysteine mutants of the transporters solubilized in detergent was measured at 25°C using an X-band Miniscope 400 EPR spectrometer (Magnettech by Freiberg Instrument). Samples were loaded into glass capillaries with the inner diameter of 0.9 mm and spectra were measured with 14 mT field sweep, 0.15 mT modulation amplitude, 2.5 mW microwave power. The calculated spin labeling efficiencies of the twelve mutants ranged between 70–90% (the second integral of the EPR spectra was calculated with the software available at spintoolbox.com). The high degree of labeling is correlated with the 0.3–0.4 modulation depths of all Q-band DEER traces presented. For DEER measurements, 10% v/v D8- glycerol was added prior to snap freezing. The range of final protein concentrations was 12 to 41 µM. 40 µL of sample were loaded in quartz tubes with 3 mm outer diameter. If not stated differently, samples were incubated at 25°C for 10 min (TM287/288 and MsbA) or 15 min (BmrCD) and snap frozen in liquid nitrogen. To study the effect of high physiological temperatures on the frozen dynamics of the transporter, samples were loaded in the quartz tubes, incubated for 3 min at 80°C on a heat block and snap frozen in a mixture of isopentane and liquid nitrogen to minimize the freezing time. […] The nucleotide analogs AMP-PNP-Mg and ATPγS-Mg (2.5 mM) were also prepared in the presence of 2.5 mM MgCl2. In case of ADP-Mg, 2.5 mM ADP and 2.5 mM MgCl2 were added.
(§8) Double electron-electron resonance (DEER) measurements were performed at 50 K on a Bruker ELEXSYS E580Q-AWG (arbitrary wave generator) dedicated pulse Q-band spectrometer equipped with a 150 W TWT amplifier. A 4-pulse DEER sequence with rectangular, non-selective observer and pump pulses of 14 or 16 ns length (depending on the available B1 at the sample) with 100 MHz frequency separation was used ([Polyhach et al., 2012]). Due to the coherent nature of the AWG generated pulses, a four-step phase cycling (0 – π/2 - π – 3/2π) of the pump π pulse was performed to remove unwanted effects of running echoes from the DEER trace. The evaluation of the DEER data was performed using DeerAnalysis2015 ([Jeschke et al., 2006]). The background of the primary DEER traces was corrected using stretched exponential functions with homogeneous dimensions of 1.5 to 3 for different samples. A model-free Tikhonov regularization was used to extract distance distributions from the background corrected form factors. […]

MsbA [2] = tested on: MsbA; parameters: method as in Moeller et al., 2015; details: single particle EM; ref Moeller et al., 2015; cited from earlier work
TM287/288 [3] = biological target: T2, TM287/288 (Thermotoga maritima, UniProt Q9WYC3+Q9WYC4, C28S/C496S/C519S/C558S/C73S); experiment: Inhibition of ATPase activity of TM287/288 by vanadate and nucleotides; assay type: biochemical; details: for IC50: 500 µM ATP, read-out: IC50; for Ki: calculated from IC50 and Km, read-out: Ki
Procedure: Nucleotide binding and hydrolysis follow a complex mechanism in heterodimeric ABC exporters, due to the existence of a degenerate and a consensus site in the NBDs. […] Using the relation IC50=Ki(1+[S]/Km), Ki values for the respective nucleotides were determined (Table 2). […] It is well established that ATPγS is slowly hydrolyzed by ATPases, as for example the F1Fo-ATPase ([Turina and Capaldi, 1994]). […] It is reasonable to assume that TM287/288 is as well capable of slow ATPγS hydrolysis. In addition, we tested whether TM287/288 hydrolyzes AMP-PNP. In contrast to ATPγS, hydrolysis of AMP-PNP releases Pi, which can be detected by the molybdate/malachite green method.
as §1, §2, §3, §4, §5

TM287/288 [4] = experiment: DEER two-Gaussian fit of IF/OF populations, wildtype TM287/288; parameters: species or system Thermotoga maritima; details: estimated errors 10%
Procedure: as §6, §7, §8

TM287/288 [5] = biological target: T2, TM287/288; experiment: ATPase activity of detergent-purified wildtype TM287/288 (molybdate/malachite green phosphate detection); assay type: biochemical; details: for Km: read-out: Km for ATP
Spin-labeled TM287/288 = experiment: ATPase activity of spin-labeled TM287/288 mutants in detergent; details: 50°C, relative to internal wildtype control
TM287/288_E517Q^TM288 = experiment: Residual ATPase activity of E-to-Q mutant of TM287/288 in detergent; assay type: biochemical, Thermotoga maritima; details: E-to-Q mutant of TM287/288, 25°C
Procedure: (§9) Incubation with buffers containing the same nucleotide concentration without protein served for background subtraction in these assays.

BmrCD_E592Q^BmrD = biological target: T3, BmrCD_E592Q^BmrD (Bacillus subtilis, UniProt O07549+O07550, C154A/C256A/C351A/E592Q); experiment: Residual ATPase activity of E-to-Q mutant of BmrCD in detergent; assay type: biochemical; details: 25°C
T3 construct: made in house; host or cells: E. coli MC1061
Procedure: as §9

BmrCD [6] = biological target: T1, BmrCD; experiment: ATPase activity of detergent-purified wildtype BmrCD; assay type: biochemical; details: 25°C
MsbA [7] = experiment: ATPase activity of detergent-purified MsbA; details: ATP-Mg, 30°C
[8] = spin-labeled pair 50^TM287-271^TM287 E517Q
[9] = spin-labeled pair 131^TM288-248^TM288 E517Q
[10] = spin-labeled pair 460^TM287-363^TM288 E517Q
[11] = spin-labeled pair 50^TM287-271^TM287 WT
[12] = spin-labeled pair 131^TM288-248^TM288 WT
[13] = spin-labeled pair 460^TM287-363^TM288 WT
[14] = wildtype TM287/288, AMP-PNP-Mg as nucleotide, 25°C [sic], detergent
[15] = BmrCD E592Q^BmrD, ATP-Mg, detergent
[16] = wildtype BmrCD, ATP-Mg, detergent
[17] = wildtype TM287/288, ATP-Mg, 25°C, detergent
[18] = wildtype TM287/288, ATP-Mg, 50°C, detergent

T1 sequence (O07550 whole entry): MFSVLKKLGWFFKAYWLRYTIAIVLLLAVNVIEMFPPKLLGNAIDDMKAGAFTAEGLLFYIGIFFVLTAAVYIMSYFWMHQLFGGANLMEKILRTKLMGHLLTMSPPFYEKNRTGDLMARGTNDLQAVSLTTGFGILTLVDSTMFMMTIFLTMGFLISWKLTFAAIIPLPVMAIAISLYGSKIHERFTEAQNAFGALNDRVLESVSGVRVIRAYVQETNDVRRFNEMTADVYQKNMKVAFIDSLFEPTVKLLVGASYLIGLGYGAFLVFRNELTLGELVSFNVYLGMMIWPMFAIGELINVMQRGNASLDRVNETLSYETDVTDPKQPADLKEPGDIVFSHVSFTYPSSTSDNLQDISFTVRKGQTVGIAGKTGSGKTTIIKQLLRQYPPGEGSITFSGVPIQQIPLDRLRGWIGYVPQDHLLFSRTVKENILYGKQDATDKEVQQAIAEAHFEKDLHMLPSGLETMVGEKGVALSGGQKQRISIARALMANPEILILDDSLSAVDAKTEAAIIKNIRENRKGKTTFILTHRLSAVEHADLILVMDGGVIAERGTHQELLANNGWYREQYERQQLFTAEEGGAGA
T1 sequence (O07549 whole entry C154A/C256A/C351A): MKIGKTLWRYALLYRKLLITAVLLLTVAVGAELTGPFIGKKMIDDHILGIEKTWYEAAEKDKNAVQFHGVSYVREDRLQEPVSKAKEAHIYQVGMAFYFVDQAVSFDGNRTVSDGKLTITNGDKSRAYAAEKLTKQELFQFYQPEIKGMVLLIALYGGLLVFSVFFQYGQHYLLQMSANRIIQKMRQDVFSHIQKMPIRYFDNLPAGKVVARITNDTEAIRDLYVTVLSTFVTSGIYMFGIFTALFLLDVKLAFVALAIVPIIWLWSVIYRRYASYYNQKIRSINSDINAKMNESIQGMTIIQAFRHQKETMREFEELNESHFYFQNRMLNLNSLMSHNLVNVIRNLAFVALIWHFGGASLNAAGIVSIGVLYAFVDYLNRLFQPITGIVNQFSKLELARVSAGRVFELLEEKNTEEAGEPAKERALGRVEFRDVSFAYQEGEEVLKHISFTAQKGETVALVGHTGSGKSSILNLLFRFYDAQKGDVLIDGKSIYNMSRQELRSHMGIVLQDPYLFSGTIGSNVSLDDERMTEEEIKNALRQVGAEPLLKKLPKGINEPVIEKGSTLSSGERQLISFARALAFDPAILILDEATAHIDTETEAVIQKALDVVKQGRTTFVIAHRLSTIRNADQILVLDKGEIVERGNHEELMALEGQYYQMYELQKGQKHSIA
T3 sequence (O07550 whole entry): as the sequence (O07550 whole entry) above
T3 sequence (O07549 whole entry C154A/C256A/C351A/E592Q): as the sequence (O07549 whole entry C154A/C256A/C351A) above, with E592Q counted along it

## Nc1ncnc2c1ncn2[C@@H]1O[C@H](COP(=O)(O)OP(=O)(O)NP(=O)(O)O)[C@@H](O)[C@H]1O [AMP-PNP]
BmrCD [1]; 2500 µM ATP, read-out: IC50
  IC50: 174 ± 24 µM
BmrCD [1]; calculated from IC50 and Km, read-out: Ki
  Ki: 21 ± 3.2 µM
TM287/288 E517Q; [8]
  IF frac: 64.9%
  OF frac: 35.1%
TM287/288 E517Q; [9]
  IF frac: 100%
  OF frac: 0%
TM287/288 E517Q; [10]
  IF frac: 65.8%
  OF frac: 34.2%
MsbA [2]
  fraction of outward-facing MsbA: 41%
TM287/288 [3]; TM287/288, 25°C
  IC50: 179 ± 75 µM
  Ki: 1.17 ± 0.51 µM
TM287/288 [3]; TM287/288, 50°C
  IC50: 16.1 ± 1.6 µM
  Ki: 0.246 ± 0.042 µM
TM287/288 [4]; [11]
  IF frac: 85.4%
  OF frac: 14.6%
TM287/288 [4]; [12]
  IF frac: 100%
  OF frac: 0%
TM287/288 [4]; [13]
  IF frac: 90.7%
  OF frac: 9.3%
TM287/288 [5]; wildtype TM287/288, AMP-PNP as nucleotide
  cleavage of AMP-PNP (sensitivity of assay): < 0.01 Pi min^−1
TM287/288 [5]; [14]
  ATPase activity (hydrolysis of AMP-PNP): <0.1 nmol Pi/min/mg protein
  ATPase activity, % of wildtype (hydrolysis of AMP-PNP): <0.005%
  Turnover per transporter (hydrolysis of AMP-PNP): <0.01 min⁻¹

## Nc1ncnc2c1ncn2[C@@H]1O[C@H](COP(=O)(O)OP(=O)(O)OP(=O)(O)O)[C@@H](O)[C@H]1O [ATP]
Spin-labeled TM287/288; spin-labeled 131^TM288/248^TM288, ATP-Mg
  ATPase activity, % of wildtype: 156* %
Spin-labeled TM287/288; spin-labeled 150^TM287/295^TM288, ATP-Mg
  ATPase activity, % of wildtype: 112* %
Spin-labeled TM287/288; spin-labeled 231^TM287/304^TM287, ATP-Mg
  ATPase activity, % of wildtype: 146* %
Spin-labeled TM287/288; spin-labeled 350^TM287/475^TM288, ATP-Mg
  ATPase activity, % of wildtype: 193* %
Spin-labeled TM287/288; spin-labeled 460^TM287/363^TM288, ATP-Mg
  ATPase activity, % of wildtype: 212* %
TM287/288 E517Q; [8]
  IF frac: 5.79%
  OF frac: 94.21%
TM287/288 E517Q; [9]
  IF frac: 24.9%
  OF frac: 75.1%
TM287/288 E517Q; [10]
  IF frac: 13%
  OF frac: 87%
TM287/288_E517Q^TM288
  ATPase turnover rate: 0.022 ATP min^−1
BmrCD_E592Q^BmrD; [15]
  ATPase activity: 0.633 ± 0.053 nmol Pi/min/mg protein
  ATPase activity, % of wildtype: 2.76%
  Turnover per transporter: 0.0896 min⁻¹
BmrCD_E592Q^BmrD; BmrCD carrying the E-to-Q mutation
  turnover rate: 0.09 ATP min^−1
BmrCD [6]; read-out: Km for ATP, BmrCD
  Km: 343 ± 24 µM
BmrCD [6]; [16]
  ATPase activity: 22.9 ± 0.5 nmol Pi/min/mg protein
  Turnover per transporter: 3.24 min⁻¹
MsbA [7]; MsbA 561^MsbA
  ATPase activity, % of wildtype: 90.4%
  Turnover per transporter: 16.6 min⁻¹
MsbA [7]; wildtype MsbA
  ATPase activity: 135 ± 9 nmol Pi/min/mg protein
  Turnover per transporter: 18.4 min⁻¹
TM287/288 [4]; [11]
  IF frac: 36.7%
  OF frac: 63.3%
TM287/288 [4]; [12]
  IF frac: 56.8%
  OF frac: 43.2%
TM287/288 [4]; [13]
  IF frac: 25.7%
  OF frac: 74.3%
TM287/288 [5]; TM287/288, 25°C
  Km: 3.27 ± 0.42 µM
TM287/288 [5]; TM287/288, 50°C
  Km: 7.78 ± 1.1 µM
TM287/288 [5]; wildtype TM287/288, ATP-Mg, 25°C
  turnover rate: 11 ATP min^−1
TM287/288 [5]; [17]
  ATPase activity: 86.1 ± 2.5 nmol Pi/min/mg protein
  Turnover per transporter: 11.4 min⁻¹
TM287/288 [5]; [18]
  ATPase activity: 2141 ± 67 nmol Pi/min/mg protein
  Turnover per transporter: 284 min⁻¹
